Experimental findings from PubChem BioAssay (NCI) are described below.

“And” between values parts separate entries of the source, which are not always exact repeats. Equal values may be shown once.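 Tested at 5 concentrations; 48 h exposure; 96-well plates; endpoints linearly interpolated, else capped at highest concentration. Here, GI50 denotes the concentration required for 50% inhibition of growth. TGI is the concentration that stops growth completely.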

Test systems include BT-549 breast; CAKI-1 renal; DLD-1 colon; EKVX NSCLC; HCT-116 colon; LXFL 529 NSCLC; NCI-H226 lung; NCI/ADR-RES ovarian; SK-MEL-28 melanoma; UO-31 renal.
What all share (assay): NCI-60 cell line screen, 48 h

Consider `Cc1c(Cl)cccc1NC(=O)CC1Sc2ccccc2NC1=O` (stereo not given), for which the TGI was above 100 µM in the experiment on BT-549 breast; 77.4 µM and > 100 µM in the experiment with CAKI-1 renal; above 100 µM in the experiment with DLD-1 colon; above 100 µM with EKVX NSCLC; 46.2 µM and 31.4 µM in the experiment on HCT-116 colon; above 100 µM in the experiment on LXFL 529 NSCLC. The TGI was 41.7 µM and 54.8 µM in the experiment with NCI-H226 lung; 58.9 µM in the experiment on NCI/ADR-RES ovarian; above 100 µM with SK-MEL-28 melanoma; 49.2 µM and 54.8 µM with UO-31 renal. Also, the GI50 in the experiment with SK-MEL-28 melanoma is 27.4 µM and 55 µM.
For the compound `O=C(Cc1ccccc1)Oc1ccc2c(-c3ccccc3)c(C(=O)Nc3ccc(Cl)cc3)c(=O)oc2c1`, the TGI with CAKI-1 renal, with DLD-1 colon, with EKVX NSCLC, in the experiment on HCT-116 colon, with LXFL 529 NSCLC and with NCI-H226 lung was above 100 µM in each case. Moreover, the TGI with SK-MEL-28 melanoma and in the experiment with UO-31 renal was above 100 µM each time.
On to `Cc1cccc(C)c1NC(=O)CCC(=O)NNC(=O)c1cc(O)c2ccccc2c1`, for which the TGI with CAKI-1 renal, in the experiment with DLD-1 colon, with EKVX NSCLC, in the experiment with HCT-116 colon, with LXFL 529 NSCLC and in the experiment on NCI-H226 lung was above 100 µM in each case. For the same compound, the TGI in the experiment with SK-MEL-28 melanoma and in the experiment on UO-31 renal was above 100 µM each time.
`COc1ccc(-c2cc(C(=O)Nc3cccc(C(F)(F)F)c3)[nH]c(=S)n2)cc1`: the TGI in the experiment on CAKI-1 renal, in the experiment with DLD-1 colon, in the experiment on EKVX NSCLC, in the experiment on HCT-116 colon, with LXFL 529 NSCLC and in the experiment with NCI-H226 lung was above 100 µM in each case. For the same compound, the TGI in the experiment on SK-MEL-28 melanoma and with UO-31 renal was above 100 µM in each case.
Consider `N#C/C(=C\c1ccc(CP(=O)(O)O)cc1)C(N)=O`, for which the TGI in the experiment on CAKI-1 renal, with DLD-1 colon, in the experiment on EKVX NSCLC, with HCT-116 colon, in the experiment with LXFL 529 NSCLC and with NCI-H226 lung was above 100 µM throughout. Besides, the TGI in the experiment with SK-MEL-28 melanoma and with UO-31 renal was above 100 µM throughout.
With `COc1ccc(OC)c(/C=C/[N+](=O)[O-])c1`, the TGI is 11.9 µM in the experiment with BT-549 breast; 7.74 µM and 7.64 µM in the experiment with CAKI-1 renal; 8.65 µM in the experiment with DLD-1 colon; 6.18 µM and 16.7 µM in the experiment with EKVX NSCLC; 12.7 µM and 6.06 µM in the experiment on HCT-116 colon; 4.83 µM with LXFL 529 NSCLC. Moreover, the TGI with NCI-H226 lung is 4.41 µM and 10.2 µM; with NCI/ADR-RES ovarian, 21 µM; in the experiment with SK-MEL-28 melanoma, 4.96 µM and 9.45 µM; in the experiment on UO-31 renal, 3.39 µM and 5.62 µM. The GI50 with EKVX NSCLC was 2.42 µM and 6.47 µM; in the experiment with NCI-H226 lung, 1.93 µM and 4.06 µM.
Take `CS(=O)(=O)C1S(=O)(=O)OCCOS1(=O)=O`: the TGI in the experiment on CAKI-1 renal, with DLD-1 colon, in the experiment with EKVX NSCLC, with HCT-116 colon, with LXFL 529 NSCLC and in the experiment on NCI-H226 lung was above 100 µM in each case. In addition, the TGI in the experiment on SK-MEL-28 melanoma and in the experiment with UO-31 renal was above 100 µM in each case.
With `C=C1C(=O)O[C@@H]2C[C@]3(C)[C@@H](C[C@H]12)[C@](C)(O)CC[C@@H]3O`, the TGI with CAKI-1 renal, with DLD-1 colon, with EKVX NSCLC, with HCT-116 colon, with LXFL 529 NSCLC and in the experiment with NCI-H226 lung was above 100 µM throughout. Also, the TGI in the experiment with SK-MEL-28 melanoma and in the experiment with UO-31 renal was above 100 µM in each case.
`O=c1/c(=C/c2cccc3ccccc23)sc2nc3ccccc3n12`: the TGI with CAKI-1 renal, in the experiment with DLD-1 colon, in the experiment with EKVX NSCLC, in the experiment on HCT-116 colon, with LXFL 529 NSCLC and in the experiment on NCI-H226 lung was above 100 µM in each case. In addition, the TGI in the experiment on SK-MEL-28 melanoma and in the experiment with UO-31 renal was above 100 µM throughout.
For the compound `[Cu+2].[Cu+2].[O-]c1ccccc1C=Nc1ccccc1[O-].[O-]c1ccccc1C=Nc1ccccc1[O-]`, the GI50 in the experiment with CAKI-1 renal was 10.8 µM; with DLD-1 colon it was 3.95 µM; with EKVX NSCLC it was 11.8 µM; in the experiment with HCT-116 colon, 2.47 µM; in the experiment with LXFL 529 NSCLC, 3.02 µM; in the experiment with NCI-H226 lung, 20.4 µM. The GI50 is 13.3 µM in the experiment with SK-MEL-28 melanoma and 12.6 µM with UO-31 renal. Also, the TGI with CAKI-1 renal is 22.8 µM; in the experiment on DLD-1 colon, 16.6 µM; in the experiment with EKVX NSCLC, 25.9 µM; in the experiment with HCT-116 colon, 6.55 µM; in the experiment on LXFL 529 NSCLC, 9.48 µM; with NCI-H226 lung it was 36.5 µM. The TGI in the experiment with SK-MEL-28 melanoma amounted to 26 µM; in the experiment on UO-31 renal, 25.2 µM.
